Measurements reported in PMC3792642 (Acta Crystallographica Section D: Biological Crystallography, 2013).
Peptide text beside a SMILES is read from it.

Test system: MtbDsbA catalytic Cys89 to Ala mutant
Type: binding, Mycobacterium tuberculosis H37Rv
Details: ITC, under the conditions tested

Compound: CC(=O)N[C@@H](Cc1ccc(O)cc1)C(=O)N[C@H](C(=O)N1CCC[C@H]1C(=O)N[C@@H](CO)C(=O)N[C@@H](CS)C(=O)N[C@@H](CC(N)=O)C(=O)N[C@H](C(N)=O)C(C)C)C(C)C [YVPSCNV] (Ac-YVPSCNV-NH2)
- Binding of VKOR peptide to the MtbDsbA catalytic Cys89 to Ala mutant: abolished binding
